How the values were obtained:
[1] = target: T1, prostacyclin receptor (IPR) (Homo sapiens, UniProt P43119); experiment: cAMP accumulation (LANCE) in human lung fibroblasts, endogenous receptor; partial agonist; format: cell-based
T1 construct: gene PTGIR

[2] = target: T1, prostacyclin receptor (IPR); experiment: cAMP accumulation (LANCE) in human lung fibroblasts, endogenous receptor; about […] blocked by IPR antagonist RO-1138452; format: cell-based

T1 sequence (P43119 1-383): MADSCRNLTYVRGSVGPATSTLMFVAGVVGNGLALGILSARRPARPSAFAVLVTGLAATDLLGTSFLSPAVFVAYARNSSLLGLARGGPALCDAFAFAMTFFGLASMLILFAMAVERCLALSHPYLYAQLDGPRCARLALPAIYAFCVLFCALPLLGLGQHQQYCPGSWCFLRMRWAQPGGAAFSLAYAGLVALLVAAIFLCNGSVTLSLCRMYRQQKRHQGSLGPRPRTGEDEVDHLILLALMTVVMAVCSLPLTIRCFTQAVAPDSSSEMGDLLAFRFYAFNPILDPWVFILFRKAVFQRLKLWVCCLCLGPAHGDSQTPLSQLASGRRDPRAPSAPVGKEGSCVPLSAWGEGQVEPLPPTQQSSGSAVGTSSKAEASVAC

Structure (SMILES) | EC50 [1] [nM] | EC50 [2] [nM]
CC(C)N(CCCCOCC(=O)O)c1cnc(-c2ccccc2)c(-c2ccccc2)n1 [MRE-269, {4-[(5,6-Diphenylpyrazin-2-yl)(isopropyl)amino]butoxy}acetic Acid] | 200 | –
CCCCC[C@H](O)CC[C@@H]1[C@H]2Cc3cccc(OCC(=O)O)c3C[C@H]2C[C@H]1O [treprostinil] | – | 64

Source: article PMC8116805, “Inhibition of the Proliferation of Human Lung Fibroblasts by Prostacyclin Receptor Agonists is Linked to a Sustained cAMP Signal in the Nucleus” (Frontiers in Pharmacology, 2021)
